Laboratory results from US20160120863A1, “SLC2A TRANSPORTER INHIBITORS” (IOMET PHARMA LTD., priority 2013, published 2016).

target: T1, human GLUT1 (Homo sapiens, UniProt P11166); assay: [3H]-deoxy-D-glucose uptake assay, GLUT1; format: cell-based; settings: [3H]-deoxy-D-glucose uptake in HEK293 cells stably expressing human GLUT1
T1 construct: expressed in transfected cells
T1 sequence (P11166 1-492): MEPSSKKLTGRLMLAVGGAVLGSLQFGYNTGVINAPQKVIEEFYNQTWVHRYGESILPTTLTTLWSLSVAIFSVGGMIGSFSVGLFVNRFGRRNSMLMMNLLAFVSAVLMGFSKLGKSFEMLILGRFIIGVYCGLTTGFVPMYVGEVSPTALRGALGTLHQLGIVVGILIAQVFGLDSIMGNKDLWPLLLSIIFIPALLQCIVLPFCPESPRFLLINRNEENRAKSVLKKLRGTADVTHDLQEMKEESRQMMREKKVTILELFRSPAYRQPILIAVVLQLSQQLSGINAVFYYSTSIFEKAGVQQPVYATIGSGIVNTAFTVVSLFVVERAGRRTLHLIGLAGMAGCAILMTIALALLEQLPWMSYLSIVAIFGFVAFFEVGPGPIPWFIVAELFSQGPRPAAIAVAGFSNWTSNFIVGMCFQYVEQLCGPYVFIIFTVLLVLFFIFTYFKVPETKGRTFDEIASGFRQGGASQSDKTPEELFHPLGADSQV
Protocol: HEK293 cells were engineered to stably express either human GLUT1, GLUT2, GLUt3 or GLUT4 by transfection with the pReceiver-Lv105 plasmid, containing either hGLUT1, hGLUT2, hGLUT3, or hGLUT4 gene constructs with lipofectamine 2000, hGLUT1- hGLUT2- hGLUT3- or hGLUT4-overexpressing polyclonal populations were isolated under purinomycin selective pressure (1 μg/ml) and maintained in Dulbecco's modified Eagle's medium supplemented with 1 μg/ml purinomycin+10% foetal bovine serum (FBS).
60,000 cells per well were seeded overnight into poly-D-lysine coasted 96-well plates. […] 90 μl of test compounds were added in glucose-free uptake buffer and cells were incubated at 37° C. for 30 min.
Cells were then washed twice with ice-cold PBS and 100 μl of Microscint-20 was added per well. Glucose uptake was quantified with a scintillation counter. The half maximal inhibitory concentration (IC50) (a measure of the effectiveness of the test compound in inhibiting glucose uptake) was determined.

GLUT1 pIC50 | Structure (SMILES)
+++ (pIC50 ≧ 6.00) | O=C(c1cccs1)N1CCN(Cc2c(-c3ccc([N+](=O)[O-])cc3)nc3ccc(-c4ccccc4)cn23)CC1 [Compound 13]
+++ (pIC50 ≧ 6.00) | O=C(COCc1ccccc1)N1CCN(Cc2c(-c3ccc(Cl)cc3)nc3ccc(-c4ccccc4)cn23)CC1 [Compound 18]
+++ (pIC50 ≧ 6.00) | Cc1cccc(C)c1NC(=O)N1CCN(Cc2c(-c3ccc(Cl)cc3)nc3ccc(-c4ccccc4)cn23)CC1 [Compound 19]
++ (pIC50 5.00-5.99) | O=C(c1cccc([N+](=O)[O-])c1)N1CCN(Cc2c(-c3ccc(Cl)cc3)nc3ccc(-c4ccccc4)cn23)CC1 [Compound 21]
+++ (pIC50 ≧ 6.00) | COc1ccc(C(=O)N2CCN(Cc3c(-c4ccc(OC)cc4)nc4ccc(-c5ccccc5)cn34)CC2)cc1 [Compound 36]
+ (pIC50 4.00-4.99) | COc1cccc(-c2nc3ccc(-c4ccccc4)cn3c2CN2CCN(C(=O)c3ccccc3Cl)CC2)c1 [Compound 39]
++ (pIC50 5.00-5.99) | Cc1ccc(C(=O)N2CCN(Cc3c(-c4ccc(F)cc4)nc4ccc(-c5ccccc5)cn34)CC2)cc1 [Compound 40]
++ (pIC50 5.00-5.99) | CC(C)(C)NC(=O)N1CCN(Cc2c(-c3ccc(Cl)cc3)nc3ccc(-c4ccccc4)cn23)CC1 [Compound 41]
+ (pIC50 4.00-4.99) | CC(C)(C)c1ccc(C(=O)N2CCN(Cc3c(-c4ccc(Cl)cc4)nc4ccc(-c5ccccc5)cn34)CC2)cc1 [Compound 42]
+++ (pIC50 ≧ 6.00) | CC(C)CC(=O)N1CCN(Cc2c(-c3ccc(Cl)cc3)nc3ccc(-c4ccccc4)cn23)CC1 [Compound 43]
+++ (pIC50 ≧ 6.00) | O=C(c1ccccc1)N1CCN(Cc2c(-c3ccc(Cl)cc3)nc3ccc(-c4ccccc4)cn23)CC1 [Compound 44]
+++ (pIC50 ≧ 6.00) | O=C(c1ccccc1F)N1CCN(Cc2c(-c3ccc(Cl)cc3)nc3ccc(-c4ccccc4)cn23)CC1 [Compound 45]
++ (pIC50 5.00-5.99) | CC(C)(C)CC(=O)N1CCN(Cc2c(-c3ccc(Cl)cc3)nc3ccc(-c4ccccc4)cn23)CC1 [Compound 46]
+++ (pIC50 ≧ 6.00) | COc1cccc(-c2nc3ccc(-c4ccccc4)cn3c2CN2CCN(C(=O)c3ccc(F)cc3)CC2)c1 [Compound 49]
+++ (pIC50 ≧ 6.00) | Cc1ccc(-c2nc3ccc(-c4ccccc4)cn3c2CN2CCN(C(=O)c3ccc(F)cc3)CC2)cc1 [Compound 50]
+++ (pIC50 ≧ 6.00) | COc1cccc(-c2nc3ccc(-c4ccccc4)cn3c2CN2CCN(C(=O)c3cccc(F)c3)CC2)c1 [Compound 52]
+++ (pIC50 ≧ 6.00) | O=C(c1ccc(F)cc1)N1CCN(Cc2c(-c3ccc(Cl)cc3)nc3ccc(-c4ccccc4)cn23)CC1 [Compound 53]

The remaining lines, values behind:

Structure (SMILES) | GLUT1 pIC50
Clc1ccc(-c2nc3ccc(-c4ccccc4)cn3c2CN2CCOCC2)cc1 [Compound 1] | ++ (pIC50 5.00-5.99)
Clc1ccc(-c2nc3ccccn3c2CN2CCOCC2)cc1 [Compound 3] | ++ (pIC50 5.00-5.99)
Clc1ccc(-c2nc3ccc(Cl)cn3c2CN2CCSCC2)cc1 [Compound 4] | + (pIC50 4.00-4.99)
Clc1ccc(-c2nc3ccc(Cl)cn3c2CN2CCCCC2)cc1 [Compound 5] | + (pIC50 4.00-4.99)
Cc1ccc2nc(-c3ccccc3)c(CN3CCSCC3)n2c1 [Compound 6] | +− (pIC50 < 4.00)
Cc1ccc2nc(-c3ccccc3)c(CN3CCN(c4ccccc4F)CC3)n2c1 [Compound 7] | + (pIC50 4.00-4.99)
CCS(=O)(=O)N1CCN(Cc2c(-c3cccc([N+](=O)[O-])c3)nc3ccc(-c4ccccc4)cn23)CC1 [Compound 9] | ++ (pIC50 5.00-5.99)
Cc1ccc(-c2cn3cc(-c4ccccc4)ccc3n2)cc1 [Compound 11] | + (pIC50 4.00-4.99)
O=[N+]([O-])c1ccc(-c2nc3ccc(-c4ccccc4)cn3c2CN2CCNCC2)cc1 [Compound 12] | + (pIC50 4.00-4.99)
O=C(c1ccco1)N1CCN(Cc2c(-c3cccc([N+](=O)[O-])c3)nc3ccc(-c4ccccc4)cn23)CC1 [Compound 15] | ++ (pIC50 5.00-5.99)
COc1cccc(-c2nc3ccc(-c4ccccc4)cn3c2CN2CCN(C(=O)C3CCC3)CC2)c1 [Compound 16] | ++ (pIC50 5.00-5.99)
COCCNC(=O)CCc1c(-c2ccc([N+](=O)[O-])cc2)nc2ccc(-c3ccccc3)cn12 [Compound 17] | +− (pIC50 < 4.00)
COc1cccc(-c2nc3ccc(-c4ccccc4)cn3c2CN2CCN(C(=O)c3cccs3)CC2)c1 [Compound 20] | +++ (pIC50 ≧ 6.00)
O=C(C1CCCC1)N1CCN(Cc2c(-c3ccc([N+](=O)[O-])cc3)nc3ccc(-c4ccccc4)cn23)CC1 [Compound 24] | +++ (pIC50 ≧ 6.00)
CCS(=O)(=O)N1CCN(Cc2c(-c3cccc(OC)c3)nc3ccc(-c4ccccc4)cn23)CC1 [Compound 25] | ++ (pIC50 5.00-5.99)
COc1cccc(-c2nc3ccc(-c4ccccc4)cn3c2CN2CCN(C(=O)C3CC3)CC2)c1 [Compound 26] | ++ (pIC50 5.00-5.99)

Structure (SMILES) | GLUT1 pIC50
Clc1ccc(-c2nc3ccc(Cl)cn3c2CN2CCOCC2)cc1 [Compound 27] | ++ (pIC50 5.00-5.99)
CC1CN(Cc2c(-c3ccccc3)nc3ccc(Cl)cn23)CC(C)O1 (stereo not drawn) [Compound 28] | ++ (pIC50 5.00-5.99)
CC1CN(Cc2c(-c3ccccc3)nc3ccccn23)CC(C)O1 (stereo not drawn) [Compound 29] | + (pIC50 4.00-4.99)
Cc1ccc2nc(-c3ccccc3)c(CN3CCNC(=O)C3)n2c1 [Compound 30] | +− (pIC50 < 4.00)
O=C(C1CCC1)N1CCN(Cc2c(-c3cccc([N+](=O)[O-])c3)nc3ccc(-c4ccccc4)cn23)CC1 [Compound 33] | ++ (pIC50 5.00-5.99)
COc1cccc(-c2nc3ccc(-c4ccccc4)cn3c2CN2CCN(C(=O)CC(C)C)CC2)c1 [Compound 34] | ++ (pIC50 5.00-5.99)
COc1cccc(-c2nc3ccc(-c4ccccc4)cn3c2CN2CCN(C(=O)C3CCCC3)CC2)c1 [Compound 35] | +++ (pIC50 ≧ 6.00)
CC(C)(C)CC(=O)N1CCN(Cc2c(-c3ccc([N+](=O)[O-])cc3)nc3ccc(-c4ccccc4)cn23)CC1 [Compound 38] | ++ (pIC50 5.00-5.99)
O=C(C1CCCC1)N1CCN(Cc2c(-c3ccc(Cl)cc3)nc3ccc(-c4ccccc4)cn23)CC1 [Compound 47] | +++ (pIC50 ≧ 6.00)
COc1cccc(-c2nc3ccc(-c4ccccc4)cn3c2CN2CCN(C(=O)c3ccco3)CC2)c1 [Compound 51] | ++ (pIC50 5.00-5.99)
COc1cccc(-c2nc3ccc(-c4ccccc4)cn3c2CN2CCN(C(=O)C(C)C)CC2)c1 [Compound 54] | ++ (pIC50 5.00-5.99)
CC(C)C(=O)N1CCN(Cc2c(-c3cccc([N+](=O)[O-])c3)nc3ccc(-c4ccccc4)cn23)CC1 [Compound 55] | ++ (pIC50 5.00-5.99)
O=C(C1CC1)N1CCN(Cc2c(-c3cccc([N+](=O)[O-])c3)nc3ccc(-c4ccccc4)cn23)CC1 [Compound 56] | ++ (pIC50 5.00-5.99)
COCC(=O)N1CCN(Cc2c(-c3cccc(OC)c3)nc3ccc(-c4ccccc4)cn23)CC1 [Compound 57] | ++ (pIC50 5.00-5.99)
CC(C)(C)CC(=O)N1CCN(Cc2c(-c3cccc([N+](=O)[O-])c3)nc3ccc(-c4ccccc4)cn23)CC1 [Compound 58] | + (pIC50 4.00-4.99)
